# Target: T1, human MCH receptor (Homo sapiens, UniProt Q99705)
# T1 construct: expressed in transfected cells
# Assay: calcium mobilization assay (FLIPR); functional IC50 of MCH1R antagonists
# Type: cell-based
# Conditions: recombinant HEK293 cell line expressing human MCH receptor; calcium flux after addition of agonist MCH
# From the text: Influence on the MCH Receptor In Vitro; Determination of Functional IC50 Values of MCH1R Antagonists
# Cloning of the cDNA for the human MCH receptor, preparation of a recombinant HEK293 cell line which expresses the human MCH receptor, and functional measurements with the recombinant cell line took place in analogy to the description by Audinot et al. (J. Biol. Chem. 2001, 276, 13554-13562). A difference from the reference was, however, the use of the plasmid pEAK8 from EDGE Biosystems (USA) for the construction of the expression vector. The host used for the transfection was a transformed HEK cell line named “PEAK Stable Cells” (likewise from EDGE Biosystems). Functional measurements of the cellular calcium flux after addition of agonist (MCH) in the presence of ligand of the invention took place with the aid of the FLIPR apparatus from Molecular Devices (USA), using protocols of the apparatus manufacturer. The compounds of the invention show a significant inhibition (>30%) of the signal induced by the agonist at a concentration of 100 μM, preferably at 10 μM, particularly preferably at 1 μM, very particularly preferably at 100 nM and very very particularly preferably at 10 nM.
# T1 sequence (Q99705 whole entry): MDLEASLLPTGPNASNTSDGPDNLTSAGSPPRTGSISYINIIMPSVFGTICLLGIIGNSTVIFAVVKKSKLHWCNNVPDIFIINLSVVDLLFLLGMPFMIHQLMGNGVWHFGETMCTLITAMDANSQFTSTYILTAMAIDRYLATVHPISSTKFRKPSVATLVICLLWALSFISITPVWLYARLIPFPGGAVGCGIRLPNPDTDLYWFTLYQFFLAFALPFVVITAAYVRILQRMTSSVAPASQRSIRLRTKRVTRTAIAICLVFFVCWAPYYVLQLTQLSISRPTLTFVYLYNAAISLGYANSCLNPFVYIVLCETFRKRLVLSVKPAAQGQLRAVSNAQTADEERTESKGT
row,IC50 [nM],SMILES
1,230,CC(C)CN1CCCC(c2ccc3c(c2)CC[C@H](NC(=O)c2ccc(OC[C@@H]4CCCO4)cc2)C3)C1 (some centres unmarked) [Example 8-3]
2,180,CN1CCCCC1c1ccc2c(c1)CC[C@H](NC(=O)c1ccc(OC[C@@H]3CCCO3)cc1)C2 (some centres unmarked) [Example 8-8]
3,120,CC(C)CCN[C@H](C)c1ccc2c(c1)CC[C@H](NC(=O)c1ccc(OC[C@@H]3CCCO3)cc1)C2 [Example 8-16]
4,230,O=C(N[C@H]1CCc2cc([C@@H]3CCCN(C4CCOCC4)C3)ccc2C1)c1ccc(OC[C@@H]2CCCO2)cc1 [Example 8-26]
5,1280,CC1(COc2ccc(C(=O)N[C@H]3CCc4cc(CN5CCCCCC5)ccc4C3)cc2)COC1 [Example 9-2]
6,170,O=C(N[C@H]1CCc2cc(CN3CCCCCC3)ccc2C1)c1ccc(OCC2OCCO2)cc1 [Example 9-3]
7,440,O=C(N[C@H]1CCc2cc(CN3CCCCCC3)ccc2C1)c1ccc(OCC2CCOCC2)cc1 [Example 9-4]
8,310,O=C(N[C@H]1CCc2cc(CN3CCCCCC3)ccc2C1)c1ccc(OCC2CCCCO2)cc1 (some centres unmarked) [Example 9-5]
9,110,"CC1CCN([C@H](C)c2ccc3c(c2)CC[C@H](NC(=O)c2ccc(OC[C@@H]4CCCO4)cc2)C3)CC1 [Example 10, N-{(S)-6-[(R)-1-(4-Methylpiperidin-1-yl)ethyl]-1,2,3,4-tetrahydronaphthalen-2-yl}-4-[(S)-1-(tetrahydrofuran-2-yl)methoxy]benzamide]"
10,300,"O=C(N[C@H]1CCc2cc(CN3CCCCCC3)ccc2C1)c1ccc(OC[C@@H]2CCCO2)c(F)c1 [Example 12, N-((S)-6-Azepan-1-ylmethyl-1,2,3,4-tetrahydronaphthalen-2-yl)-3-fluoro-4-[(S)-1-(tetrahydrofuran-2-yl)methoxy]benzamide]"
11,1400,"COC1CCN(Cc2ccc3c(c2)CC[C@H](n2ccc4cc(OC[C@@H]5CCCO5)ccc4c2=O)C3)CC1 [Example 13, 2-[(S)-6-(4-Methoxypiperidin-1-ylmethyl)-1,2,3,4-tetrahydronaphthalen-2-yl]-6-[(S)-1-(tetrahydrofuran-2-yl)methoxy]-2H-isoquinolin-1-one]"

# From US8609731B2, “Substituted tetrahydronaphthalenes, process for the preparation thereof and the use thereof as medicaments” (SANOFI, priority 2007, dated 2013)
